The structures appear in SMILES notation.

Assay [1] deals with neural rosettes chemically differentiated from NS-iPSCs. Put plainly: mRNA expression of ectoderm, neural rosette and neural marker genes in neural rosettes chemically differentiated from NS-iPSCs (RT-PCR, q-PCR). The class given is cell-based, human. To be noted: stepwise treatment with both dorsomorphin (5 μM) and SB431542 (10 μM) together, versus normal control (H9, CRL12). The protocol: To investigate whether or not the neural marker genes were normally expressed in the neural rosettes chemically differentiated from NS-iPSCs, the mRNA expression levels of the ectoderm genes PAX6, ZIC1, NESTIN, and VIMENTIN, and the NR genes PLZF, NR2F1, HES5, and DACH1, and the neural genes TUJ1, ASCL1, and NF1 were measured in the chemically differentiated NS-EBs. Particularly, the neural rosettes chemically differentiated from NS-iPSCs by the same manner as described in Example <6-1> were prepared. […] The expressions of those genes were observed by RT-PCR at mRNA level. As for the normal control, the neural rosettes chemically differentiated from H9 cell line and CRL12 in Example <6-1> were used. […] The expression of NR2F1 gene was measured by q-PCR at mRNA level. As the control group for the normalization of the expression level, GAPDH gene was used so that the expression was also measured. ΔCt value of each gene was calculated by the difference between Ct value of GAPDH and Ct value of NR2F1 gene. As for the control, the human normal embryonic stem cell line H9 and the human normal fibroblast-derived iPSCs (CRL12) were induced into neural rosettes via chemical treatments as described in Example <6-1>. The expressions of those neural rosettes were compared with the gene expression of NS-NR. The results are presented by the fold change calculated by the mathematical formula 1 above.

The subject of assay [2] is NS-iPSCs (Noonan syndrome patient-derived induced pluripotent stem cells). Nature of the assay: Chemically directed differentiation of NS-iPSCs into embryoid bodies and neural rosettes, cell morphology. The class given is cell-based, human. To be noted: stepwise treatment with both dorsomorphin (5 μM) and SB431542 (10 μM) together; NS-iPSC #4 and #5; compared with natural differentiation and normal control (H9, CRL12). From the text: Due to the abnormality in the signal transduction system in Noonan syndrome, EBs and neural rosettes naturally differentiated from NS-iPSCs were abnormally developed. To overcome this problem, the present inventors induced chemically directed differentiation of EBs and neural rosettes from NS-iPSCs by using dorsomorphin (DM) and SB431542 according to the schematic diagram of FIG. 18 (FIG. 18 and Table 6). Particularly, the colonies of NS-iPSC #4 and NS-iPSC #5 induced by the same manner as described in Example <2-1> were quartered by using 1 ml insulin syringe. The quartered NS-iPSCs were loaded on ultra-low attachment dish (SPL life sciences Co., Ltd, Korea), which were resuspended in 4 ml of embryoid body differentiation media which was the DMEM/F12 (Invitrogen, USA) containing 10% serum replacement (SR; GIBCO, USA). The resuspended NS-iPSCs were cultured for 4 days to induce the differentiation into NS-EBs. Then, the differentiated NS-EBs were obtained and cultured for 4˜5 days on the matrigel (1:50, BD biosciences, USA) coated dish in the neural rosette media which consists of DMEM/F12 supplemented with N2, B27 and […] of bFGF (FGF2, R&D systems, USA). The generated Noonan syndrome-derived neural rosettes were mechanically selected and placed on the fibronectin (BD biosciences, USA) coated dish, followed by culture in the neural rosette media for 4˜5 days. […]

As to `NC(=O)c1ccc(-c2nc(-c3ccc4c(c3)OCO4)c(-c3ccccn3)[nH]2)cc1` [SB431542], the “expression of NR2F1” value in assay [1] (mRNA level in NS neural rosettes) is “decreased”. Further, in assay [1] (mRNA level), the “expressions of ectoderm, neural rosette, and neural marker genes” value is “adjusted to the nearly normal level”. In addition, the “cell morphology of the chemically differentiated EBs and neural rosettes” value in assay [2] was “recovered to a normal shape”.

These data come from patent publication US20170016886A1, “INDUCED PLURIPOTENT STEM CELL MODEL OF NOONAN SYNDROME AND USE THEREOF” (KOREA ADVANCED INSTITUTE OF SCIENCE AND TECHNOLOGY, priority 2014, published 2017).
